Measured values reported in US11684614B2, “Formulations of hydroxypyridonate actinide/lanthanide decorporation agents” (priority 2017, dated 2023).

Test: Repeated-treatment efficacy for removing an intravenous dose of 238Pu (excretion, tissue retention, clinical observations), female and male arms
Format: in vivo, Swiss-Webster mice
Settings: male mice; for 238Pu percent increase in excretion, Total Excretion / 238Pu percent increase in excretion, Total Feces / 238Pu percent increase in excretion, Total Urine: over untreated control group; for ^238Pu percent tissue reduction, GI Trace / ^238Pu percent tissue reduction, Kidney / ^238Pu percent tissue reduction, Liver / ^238Pu percent tissue reduction, Soft Tissue / ^238Pu percent tissue reduction, Total Body / ^238Pu percent tissue reduction, Total Bone / ^238Pu percent tissue reduction, GI Tract: vs untreated control group
Method: The objective of this study was to characterize the efficacy of 3,4,3-L1(1,2-HOPO) at enhancing elimination from an internal plutonium burden in female and male Swiss-Webster mice administered a soluble citrate complex of ^238Pu and treated multiple times, starting at 24 hours after the exposure. Efficacy was evaluated by comparing the tissue contents, urinary and fecal excretions of ^238Pu in treated animals versus untreated animals.
The medical countermeasure 3,4,3-L1(1,2-HOPO) was administered parenterally (ip) or orally (po) via consecutive injections or gavages (six daily or twelve twice daily) starting at 24 hours post contamination at the following four selected doses: 30 μmol/kg ip, 150 μmol/kg po, 300 μmol/kg po, and 600 μmol/kg po (equivalent to respective approximate human doses range of […], using the accepted conversion system of mouse doses into human equivalent doses—HED—based on body surface area). Oral doses also included the permeability enhancer selected during formulation development work.
• Challenge isotope: ^238Pu • Challenge dose: 25 nCi (i.e., approximately 0.8 μCi/kg) • Route of contamination: Intravenous (iv) tail-vein • Route of treatment: Intraperitoneal Injection (ip) or Oral (po) • Frequency of treatment: Multiple (once- or twice-daily for 6 days) doses, starting 24 hr postcontamination • Treatment dose calculation: Dose calculations (mg/kg or μmol/kg) for the decorporation agent were based on the individual body weight measured after contamination. • Study Duration: 11 days, in-life
c. […] Test article and control dose formulations were prepared within 1 day of dose administration, by weighing out the appropriate amount of test article, dispersing in vehicle. For ip solutions, the test article was used alone, while for oral suspensions, a mixture of test article and excipient (90:10, w:w) was used. The pH was adjusted to 7.0-7.4 for ip administration and 5.0-5.5 for oral administration with sterile NaOH. Dose formulations were prepared at room temperature and filter-sterilized. • Storage: 2-8° C.; refrigerated; protected from light. • Characterization: The concentration of each test article formulation was verified by high-performance liquid chromatography-mass spectrometry. • Test Article Handling: Test, reference, and control article formulations were handled with the use of eye protection, gloves, and a protective laboratory coat. • Correct Dose Assurance: The test article was weighed with calibrated balances. The administration of each dose formulation was properly documented, and the amount administered to each animal recorded.
e. Experimental Procedures (In-Life Evaluations and Euthanasia) • Contamination: Single administration by intravenous (iv) tail-vein injection (0.2 mL injection volume) under isoflurane anesthesia. Three standard 0.2 mL injections were performed into polyethylene bottles and pre-loaded with aliquots of concentrated nitric acid on each injection day. Six female and six male mice were culled for necropsy 1 hr post-contamination and were used as standards. A11 standards were processed and counted together with the final samples to allow verification of the contamination dose. • Dose Administration: Single administration by intraperitoneal injection (ip) or oral gavage (po) under isoflurane anesthesia. • Mortality/Morbidity: Assessed at least once daily. • Clinical Observations: Recorded once daily (4 hr post-dose on day of treatment), or more often as clinical signs warranted. […]

[1] = 30 μmol/kg, IP, 11-day necropsy
[2] = 150 μmol/kg, 2 doses PO, 7-day necropsy
[3] = 300 μmol/kg, 1 dose PO, 7-day necropsy
[4] = 300 μmol/kg, 1 dose PO, 11-day necropsy
[5] = 300 μmol/kg, 2 doses PO, 7-day necropsy
[6] = 300 μmol/kg, PO, 11-day necropsy
[7] = 600 μmol/kg, 1 dose PO, 7-day necropsy
[8] = 600 μmol/kg, 1 dose PO, 11-day necropsy
[9] = 600 μmol/kg, PO, 11-day necropsy
[10] = 600 μmol/kg, dose PO, 7-day necropsy

O=C(NCCCN(CCCCN(CCCNC(=O)c1cccc(=O)n1O)C(=O)c1cccc(=O)n1O)C(=O)c1cccc(=O)n1O)c1cccc(=O)n1O [Formulation 343]
^238Pu excretion, Total Excretion, Avg [1]: 79.89 percent recovered dose
^238Pu excretion, Total Feces, Avg [1]: 48.24 percent recovered dose
^238Pu excretion, Total Urine, Avg [1]: 31.65 percent recovered dose
^238Pu retention, GI Tract, Avg [1]: 0.53 percent recovered dose
^238Pu retention, Kidney, Avg [1]: 0.12 percent recovered dose
^238Pu retention, Liver, Avg [1]: 2.42 percent recovered dose
^238Pu retention, Soft Tissue, Avg [1]: 1.14 percent recovered dose
^238Pu retention, Total Body, Avg [1]: 20.11 percent recovered dose
^238Pu retention, Total Bone, Avg [1]: 15.90 percent recovered dose
238Pu percent increase in excretion, Total Excretion [1]: 168.28%
238Pu percent increase in excretion, Total Feces [1]: 188.96%
238Pu percent increase in excretion, Total Urine [1]: 144.22%
^238Pu percent tissue reduction, GI Trace [1]: 72.95%
^238Pu percent tissue reduction, Kidney [1]: 65.35%
^238Pu percent tissue reduction, Liver [1]: 85.55%
^238Pu percent tissue reduction, Soft Tissue [1]: 67.92%
^238Pu percent tissue reduction, Total Body [1]: 61.72%
^238Pu percent tissue reduction, Total Bone [1]: 46.83%
^238Pu excretion, Total Excretion, Avg [2]: 53.58 percent recovered dose
^238Pu excretion, Total Feces, Avg [2]: 30.26 percent recovered dose
^238Pu excretion, Total Urine, Avg [2]: 23.32 percent recovered dose
^238Pu retention, GI Tract, Avg [2]: 1.67 percent recovered dose
^238Pu retention, Kidney, Avg [2]: 0.31 percent recovered dose
^238Pu retention, Liver, Avg [2]: 21.40 percent recovered dose
^238Pu retention, Soft Tissue, Avg [2]: 3.16 percent recovered dose
^238Pu retention, Total Body, Avg [2]: 46.42 percent recovered dose
^238Pu retention, Total Bone, Avg [2]: 19.87 percent recovered dose
238Pu percent increase in excretion, Total Excretion [2]: 149.61%
238Pu percent increase in excretion, Total Feces [2]: 174.63%
238Pu percent increase in excretion, Total Urine [2]: 126.15%
^238Pu percent tissue reduction, GI Tract [2]: −17.71%
^238Pu percent tissue reduction, Kidney [2]: −4.19%
^238Pu percent tissue reduction, Liver [2]: 18.09%
^238Pu percent tissue reduction, Soft Tissue [2]: −5.31%
^238Pu percent tissue reduction, Total Body [2]: 27.68%
^238Pu percent tissue reduction, Total Bone [2]: 40.39%
^238Pu excretion, Total Excretion, Avg [3]: 64.11 percent recovered dose
^238Pu excretion, Total Feces, Avg [3]: 40.12 percent recovered dose
^238Pu excretion, Total Urine, Avg [3]: 24.00 percent recovered dose
^238Pu retention, GI Tract, Avg [3]: 1.23 percent recovered dose
^238Pu retention, Kidney, Avg [3]: 0.17 percent recovered dose
^238Pu retention, Liver, Avg [3]: 12.68 percent recovered dose
^238Pu retention, Soft Tissue, Avg [3]: 1.75 percent recovered dose
^238Pu retention, Total Body, Avg [3]: 35.89 percent recovered dose
^238Pu retention, Total Bone, Avg [3]: 20.06 percent recovered dose
238Pu percent increase in excretion, Total Excretion [3]: 162.02%
238Pu percent increase in excretion, Total Feces [3]: 225.83%
238Pu percent increase in excretion, Total Urine [3]: 110.04%
^238Pu percent tissue reduction, GI Tract [3]: 21.76%
^238Pu percent tissue reduction, Kidney [3]: 40.67%
^238Pu percent tissue reduction, Liver [3]: 43.47%
^238Pu percent tissue reduction, Soft Tissue [3]: 34.62%
^238Pu percent tissue reduction, Total Body [3]: 40.61%
^238Pu percent tissue reduction, Total Bone [3]: 40.06%
^238Pu retention, GI Tract, Avg [4]: 1.03 percent recovered dose
^238Pu retention, Kidney, Avg [4]: 0.15 percent recovered dose
^238Pu retention, Liver, Avg [4]: 9.46 percent recovered dose
^238Pu retention, Soft Tissue, Avg [4]: 2.20 percent recovered dose
^238Pu retention, Total Body, Avg [4]: 33.83 percent recovered dose
^238Pu retention, Total Bone, Avg [4]: 20.99 percent recovered dose
^238Pu percent tissue reduction, GI Trace [4]: 30.01%
^238Pu percent tissue reduction, Kidney [4]: 45.60%
^238Pu percent tissue reduction, Liver [4]: 48.32%
^238Pu percent tissue reduction, Soft Tissue [4]: 22.51%
^238Pu percent tissue reduction, Total Body [4]: 36.96%
^238Pu percent tissue reduction, Total Bone [4]: 30.34%
^238Pu excretion, Total Excretion, Avg [5]: 59.71 percent recovered dose
^238Pu excretion, Total Feces, Avg [5]: 34.14 percent recovered dose
^238Pu excretion, Total Urine, Avg [5]: 25.57 percent recovered dose
^238Pu retention, GI Tract, Avg [5]: 1.45 percent recovered dose
^238Pu retention, Kidney, Avg [5]: 0.18 percent recovered dose
^238Pu retention, Liver, Avg [5]: 15.12 percent recovered dose
^238Pu retention, Soft Tissue, Avg [5]: 2.41 percent recovered dose
^238Pu retention, Total Body, Avg [5]: 40.29 percent recovered dose
^238Pu retention, Total Bone, Avg [5]: 21.12 percent recovered dose
238Pu percent increase in excretion, Total Excretion [5]: 166.71%
238Pu percent increase in excretion, Total Feces [5]: 197.01%
238Pu percent increase in excretion, Total Urine [5]: 138.32%
^238Pu percent tissue reduction, GI Tract [5]: −2.24%
^238Pu percent tissue reduction, Kidney [5]: 39.84%
^238Pu percent tissue reduction, Liver [5]: 42.11%
^238Pu percent tissue reduction, Soft Tissue [5]: 19.73%
^238Pu percent tissue reduction, Total Body [5]: 37.23%
^238Pu percent tissue reduction, Total Bone [5]: 36.64%
^238Pu excretion, Total Excretion, Avg [6]: 66.17 percent recovered dose
^238Pu excretion, Total Feces, Avg [6]: 40.33 percent recovered dose
^238Pu excretion, Total Urine, Avg [6]: 25.84 percent recovered dose
238Pu percent increase in excretion, Total Excretion [6]: 142.80%
238Pu percent increase in excretion, Total Feces [6]: 180.35%
238Pu percent increase in excretion, Total Urine [6]: 107.78%
^238Pu excretion, Total Excretion, Avg [7]: 65.66 percent recovered dose
^238Pu excretion, Total Feces, Avg [7]: 40.53 percent recovered dose
^238Pu excretion, Total Urine, Avg [7]: 25.13 percent recovered dose
238Pu percent increase in excretion, Total Excretion [7]: 165.93%
238Pu percent increase in excretion, Total Feces [7]: 228.14%
238Pu percent increase in excretion, Total Urine [7]: 115.25%
^238Pu percent tissue reduction, GI Tract [7]: −3.93%
^238Pu percent tissue reduction, Kidney [7]: 11.13%
^238Pu percent tissue reduction, Liver [7]: 44.57%
^238Pu percent tissue reduction, Soft Tissue [7]: 17.40%
^238Pu percent tissue reduction, Total Body [7]: 43.17%
^238Pu percent tissue reduction, Total Bone [7]: 46.78%
^238Pu retention, GI Tract, Avg [8]: 0.75 percent recovered dose
^238Pu retention, Kidney, Avg [8]: 0.19 percent recovered dose
^238Pu retention, Liver, Avg [8]: 6.78 percent recovered dose
^238Pu retention, Soft Tissue, Avg [8]: 1.93 percent recovered dose
^238Pu retention, Total Body, Avg [8]: 27.67 percent recovered dose
^238Pu retention, Total Bone, Avg [8]: 18.02 percent recovered dose
^238Pu percent tissue reduction, GI Trace [8]: 49.06%
^238Pu percent tissue reduction, Kidney [8]: 32.19%
^238Pu percent tissue reduction, Liver [8]: 62.99%
^238Pu percent tissue reduction, Soft Tissue [8]: 32.01%
^238Pu percent tissue reduction, Total Body [8]: 48.44%
^238Pu percent tissue reduction, Total Bone [8]: 40.18%
^238Pu excretion, Total Excretion, Avg [9]: 72.33 percent recovered dose
^238Pu excretion, Total Feces, Avg [9]: 44.91 percent recovered dose
^238Pu excretion, Total Urine, Avg [9]: 27.43 percent recovered dose
238Pu percent increase in excretion, Total Excretion [9]: 156.10%
238Pu percent increase in excretion, Total Feces [9]: 200.32%
238Pu percent increase in excretion, Total Urine [9]: 114.39%
^238Pu retention, GI Tract, Avg [10]: 1.63 percent recovered dose
^238Pu retention, Kidney, Avg [10]: 0.25 percent recovered dose
^238Pu retention, Liver, Avg [10]: 12.44 percent recovered dose
^238Pu retention, Soft Tissue, Avg [10]: 2.22 percent recovered dose
^238Pu retention, Total Body, Avg [10]: 34.34 percent recovered dose
^238Pu retention, Total Bone, Avg [10]: 17.81 percent recovered dose
